These results are taken from ChEMBL document CHEMBL3585308, “Discovery and Modification of in Vivo Active Nrf2 Activators with 1,2,4-Oxadiazole Core: Hits Identification and Structure-Activity Relationship Study” (J Med Chem, 2015).

In data set [1] the target is T1, Nuclear factor erythroid 2-related factor 2 (Homo sapiens) (UniProt Q16236).
T1 sequence (whole entry): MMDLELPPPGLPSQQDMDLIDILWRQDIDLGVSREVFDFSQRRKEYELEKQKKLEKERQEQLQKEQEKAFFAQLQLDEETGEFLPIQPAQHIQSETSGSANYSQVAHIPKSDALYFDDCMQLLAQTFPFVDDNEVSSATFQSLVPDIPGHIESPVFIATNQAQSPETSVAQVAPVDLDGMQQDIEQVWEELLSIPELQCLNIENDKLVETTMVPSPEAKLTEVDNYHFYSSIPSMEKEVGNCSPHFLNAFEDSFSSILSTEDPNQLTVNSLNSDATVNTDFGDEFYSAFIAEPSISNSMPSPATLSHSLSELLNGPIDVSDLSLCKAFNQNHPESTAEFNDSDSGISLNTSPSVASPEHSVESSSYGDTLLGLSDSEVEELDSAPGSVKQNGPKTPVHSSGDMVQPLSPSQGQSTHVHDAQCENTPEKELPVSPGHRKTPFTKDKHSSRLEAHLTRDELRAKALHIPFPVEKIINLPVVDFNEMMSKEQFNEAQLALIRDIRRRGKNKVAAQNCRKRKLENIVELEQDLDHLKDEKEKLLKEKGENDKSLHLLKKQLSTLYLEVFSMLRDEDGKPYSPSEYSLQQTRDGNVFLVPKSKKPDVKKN
As to the kind of experiment: Activation of Nrf2 in human HepG2-ARE-C8 cells assessed as upregulation of ARE level at 80 uM after 12 hrs by luciferase reporter gene assay relative to control. Format: cell-based.

The target of data set [2] is T1, Nuclear factor erythroid 2-related factor 2 (Homo sapiens). As to the kind of experiment: Activation of Nrf2 in human HepG2-ARE-C8 cells assessed as upregulation of ARE level at 20 uM after 12 hrs by luciferase reporter gene assay relative to control. It is filed as cell-based.
Data set [3] shares this target. As to the kind of experiment: Activation of Nrf2 in human HepG2-ARE-C8 cells assessed as upregulation of ARE level at 2 uM after 12 hrs by luciferase reporter gene assay relative to control. Format: cell-based.
For data set [4] the target is unchanged. As to the kind of experiment: Activation of Nrf2 in human HepG2-ARE-C8 cells assessed as upregulation of ARE level at 40 uM after 12 hrs by luciferase reporter gene assay relative to control. Format: cell-based.
In data set [5] the test system is HCT-116. As to the kind of experiment: Cytotoxicity against human HCT116 cells assessed as reduction of cell proliferation at 80 uM after 24 hrs by MTT assay. It is filed as cell-based. Particulars: hct-116, 24 h.
The nature of data set [6]: Chemical stability assessed as compound degradation after 2 weeks. Format: physicochemical. The conditions noted are these: 336 h.
Data set [7] addresses T1, Nuclear factor erythroid 2-related factor 2 (Homo sapiens). As to the kind of experiment: Activation of Nrf2 in human HepG2-ARE-C8 cells assessed as upregulation of ARE level at 0.2 uM after 12 hrs by luciferase reporter gene assay relative to control. It is filed as cell-based.
The target is the same in data set [8]. As to the kind of experiment: Activation of Nrf2 in human HepG2-ARE-C8 cells assessed as upregulation of ARE level at 0.02 uM after 12 hrs by luciferase reporter gene assay relative to control. Format: cell-based.
Data set [9] shares this target. As to the kind of experiment: Activation of Nrf2 in human HepG2-ARE-C8 cells assessed as upregulation of ARE level at 160 uM after 12 hrs by luciferase reporter gene assay relative to control. Format: cell-based.
For data set [10] the target is unchanged. As to the kind of experiment: Activation of Nrf2 in human HepG2-ARE-C8 cells assessed as upregulation of ARE level at 50 uM after 12 hrs by luciferase reporter gene assay relative to control. It is filed as cell-based.
Data set [11] concerns HCT-116. As to the kind of experiment: Cytotoxicity against human HCT116 cells assessed as effect on cell proliferation at 5 to 80 uM after 24 hrs by MTT assay. It is filed as cell-based. Particulars: hct-116, 24 h.

On to `O=[N+]([O-])c1ccccc1-c1nc(-c2ccc3nc[nH]c3c2)no1`, for which the fold change (FC) in [1] was found to be 42.6; in [2], 36.6; in data set [3] it was 12.1; in [4], 53.6; in data set [7], 3.76; in data set [8], 1.73. The fold change (FC) in [9] worked out at 38.4. The Activity entry with HCT-116 [5] is “Non-toxic”. In [6], the Stability result is recorded as “Unstable”.

For `Cc1nc2cc(-c3noc(-c4ccccc4Br)n3)ccc2o1`, the fold change (FC) in data set [1] is 5.88; in data set [2] it was 3.31; in data set [3], 1.47; in data set [10] it was 5.47; in data set [4], 4.05; in data set [7], 1.22. Moreover, the fold change (FC) in [8] came to 1.18; in data set [9] it was 6.

Take `O=[N+]([O-])c1ccc(-c2nc(-c3ccc4nc[nH]c4c3)no2)cc1`: the fold change (FC) was 30.6 in [1]; 15.6 in [2]; 6.59 in [3]; 36.7 in [4]; 2.02 in [7]; 1.64 in data set [8]. Also, the fold change (FC) in data set [9] came to 38.3. Also, the Activity entry in the data set with HCT-116 [5] is “Non-toxic”. Besides, in data set [6], the Stability result is “Unstable”.

In the case of `Cn1nnc2ccc(-c3noc(-c4ccc(F)cc4)n3)cc21`, the Activity result in the data set with HCT-116 [11] was “Non-toxic”. Further, the fold change (FC) came out at 5.48 in data set [1]; 3.88 in data set [2]; 3.17 in [3]; 5.96 in data set [4]; 1.83 in data set [7]; 1.46 in data set [8]. Moreover, the fold change (FC) in [9] was 8.36.

Turning to `Cn1nnc2cc(-c3noc(-c4ccccc4)n3)ccc21`, the Activity result in the data set with HCT-116 [11] was “Non-toxic”. Moreover, the fold change (FC) in data set [1] stood at 7.67; in data set [2], 5.65; in data set [3], 4.48; in data set [4], 7.34; in data set [7], 1.12; in [8], 1.18. In addition, the fold change (FC) in data set [9] worked out at 11.7.
